This is an account of results in patent US5039805A, “Novel benzoic and phenylacetic acid derivatives” (Hoffmann-La Roche Inc., priority 1988, dated 1991).

Where a SMILES comes first, the peptide text is derived from it. [ ]: non-standard residue; d: D form. The star is where a group is joined. 3Abz = Nc1cccc(C(=O)O)c1; Boc = CC(C)(C)OC(=O)* Some results are limits rather than exact numbers.

In the first series the target is T1, fibrinogen receptor, glycoprotein IIb/IIIa (Homo sapiens, UniProt P05106+P08514).
T1 construct: obtained from Triton X-100 extracts of human blood platelets; from tissue
T1 sequence (P08514 32-887 limits assumed): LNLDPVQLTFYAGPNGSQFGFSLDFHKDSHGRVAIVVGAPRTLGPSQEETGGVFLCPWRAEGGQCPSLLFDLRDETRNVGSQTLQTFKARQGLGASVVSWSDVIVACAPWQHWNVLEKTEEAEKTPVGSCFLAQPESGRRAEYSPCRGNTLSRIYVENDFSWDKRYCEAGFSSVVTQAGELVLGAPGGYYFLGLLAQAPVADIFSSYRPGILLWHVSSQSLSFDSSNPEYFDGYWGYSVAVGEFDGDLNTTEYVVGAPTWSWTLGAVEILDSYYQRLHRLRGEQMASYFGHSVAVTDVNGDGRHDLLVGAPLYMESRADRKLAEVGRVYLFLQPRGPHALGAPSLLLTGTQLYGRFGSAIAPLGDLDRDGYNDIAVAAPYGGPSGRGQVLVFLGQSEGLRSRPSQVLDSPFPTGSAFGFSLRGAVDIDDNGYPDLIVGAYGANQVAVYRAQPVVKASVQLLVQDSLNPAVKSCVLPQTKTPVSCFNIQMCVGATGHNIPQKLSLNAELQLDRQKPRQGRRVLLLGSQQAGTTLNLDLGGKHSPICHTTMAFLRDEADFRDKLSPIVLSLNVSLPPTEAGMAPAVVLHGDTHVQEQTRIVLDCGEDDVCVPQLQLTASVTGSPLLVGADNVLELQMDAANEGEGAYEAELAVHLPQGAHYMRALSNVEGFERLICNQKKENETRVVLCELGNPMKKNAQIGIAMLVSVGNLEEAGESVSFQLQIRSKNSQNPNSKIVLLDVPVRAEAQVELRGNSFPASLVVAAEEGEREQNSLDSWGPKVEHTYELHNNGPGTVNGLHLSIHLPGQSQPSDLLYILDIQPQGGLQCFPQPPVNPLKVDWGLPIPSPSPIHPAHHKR
T1 sequence (P08514 891-1039 limits assumed): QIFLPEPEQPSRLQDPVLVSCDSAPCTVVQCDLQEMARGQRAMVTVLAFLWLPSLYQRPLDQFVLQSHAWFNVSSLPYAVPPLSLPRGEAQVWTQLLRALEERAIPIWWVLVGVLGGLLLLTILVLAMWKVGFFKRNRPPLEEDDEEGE
T1 sequence (P05106 27-788): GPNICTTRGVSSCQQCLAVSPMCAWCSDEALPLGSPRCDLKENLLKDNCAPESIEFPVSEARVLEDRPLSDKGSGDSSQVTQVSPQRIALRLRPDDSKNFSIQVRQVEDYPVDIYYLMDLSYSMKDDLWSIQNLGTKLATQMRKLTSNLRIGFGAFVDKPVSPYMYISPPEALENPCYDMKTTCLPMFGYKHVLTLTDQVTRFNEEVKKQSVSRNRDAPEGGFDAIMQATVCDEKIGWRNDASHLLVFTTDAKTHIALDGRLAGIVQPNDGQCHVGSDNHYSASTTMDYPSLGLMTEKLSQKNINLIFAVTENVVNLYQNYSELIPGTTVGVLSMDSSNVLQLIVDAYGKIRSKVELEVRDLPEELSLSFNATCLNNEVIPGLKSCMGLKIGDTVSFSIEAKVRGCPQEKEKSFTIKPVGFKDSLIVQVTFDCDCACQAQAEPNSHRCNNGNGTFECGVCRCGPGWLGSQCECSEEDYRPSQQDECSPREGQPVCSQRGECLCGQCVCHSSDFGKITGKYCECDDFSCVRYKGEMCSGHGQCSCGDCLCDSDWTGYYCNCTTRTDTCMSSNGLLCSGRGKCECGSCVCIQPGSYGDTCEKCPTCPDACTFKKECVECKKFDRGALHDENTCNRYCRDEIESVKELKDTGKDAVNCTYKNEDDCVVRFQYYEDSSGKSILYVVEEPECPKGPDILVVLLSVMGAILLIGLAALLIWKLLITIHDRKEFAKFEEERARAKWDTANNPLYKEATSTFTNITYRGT
Briefly: inhibition of the binding of fibrinogen to the immobilized fibrinogen receptor (ELISA). To be noted: fibrinogen binding to immobilized glycoprotein IIb/IIIa from human blood platelets, read-out: IC50 (inhibition of the binding of fibrinogen to the immobilized receptor by 50%). As for the experimental part:
The glycoprotein IIb/IIIa is obtained from Triton X-100 extracts of human blood platelets and is purified by lectin affinity chromatography (Analytical Biochemistry 151, 1985, 169-177) and chromatography on an Arg-Gly-Asp-Ser affinity column (Science 231, 1986, 1559-62). The thus-obtained receptor protein is bonded to microtitre plates. The specific binding of fibrinogen to the immobilized receptor is determined with the aid of an ELISA system ("enzyme-linked immunosorbent assay"). The IC50 values hereinafter correspond to that concentration of the test substance which is required to inhibit the binding of fibrinogen to the immobilized receptor by 50%: […]
In general terms: In an ELISA, binding on a coated surface is turned into a signal by an enzyme label.
For `NCCCCC(=O)Nc1cccc(C(=O)NC(CC(=O)O)c2ccc3c(c2)CCC3)c1` (racemic) [Example 41, DL-N-[m-(5-aminovaleramido)benzoyl]-3-(5-indanyl)-β-alanine], the IC50 is 0.28 µM. On the same count and under the same terms, the figure for `NCCCCCC(=O)Nc1cccc(C(=O)NCCC(=O)O)c1` [Example 5, N-[m-(6-aminohexanamido)benzoyl]-β-alanine] is 0.27 µM; for `NCc1ccc(C(=O)Nc2cccc(C(=O)NCCC(=O)O)c2)cc1` [Example 8, N-[m-(α-amino-p-toluamido)benzoyl]-β-alanine] it is 0.16 µM. The same measure, in the same setting: the same measure for `NCCCCC(=O)Nc1cccc(C(=O)NCCC(=O)O)c1` [Example 9, N-[m-(5-aminovaleramido)benzoyl]-β-alanine]: 0.24 µM. In the case of `N=C(N)NCCCCCC(=O)Nc1cccc(C(=O)NCCC(=O)O)c1` [Example 10, N-[m-(6-guanidinohexanamido)benzoyl]-β-alanine], the IC50 is 0.26 µM. Take `N=C(N)NCc1ccc(C(=O)Nc2cccc(C(=O)NCCC(=O)O)c2)cc1` [Example 13, N-[m-(α-guanidino-p-toluamido)benzoyl]-β-alanine]: the 50% inhibitory concentration (IC50) came to 0.22 µM. As to `CC(C)[C@H](NC(=O)[C@H](CC(=O)O)NC(=O)c1cccc(NC(=O)[C@@H](N)CCCNC(=N)N)c1)C(=O)O` [Example 14, N-[N-[m-(L-arginylamino)benzoyl]-L-α-aspartyl]-L-valine] (H-R[3Abz]DV-OH), the 50% inhibitory concentration (IC50) amounted to 0.3 µM.

Turning to `CC(C)[C@H](NC(=O)[C@H](CC(=O)O)NC(=O)c1cccc(NC(=O)[C@H](CCCN=C(N)N)NC(=O)OC(C)(C)C)c1)C(=O)O` [Example 15, [m-(Boc-Arg-NH)benzoyl]-Asp-Val] (Boc-R[3Abz]DV-OH), the half-maximal inhibitory concentration (IC50) stood at 0.08 µM. Same read-out and setting: the same measure for `NCCCCCC(=O)Nc1ccc(Cl)c(C(=O)NCCC(=O)O)c1` [Example 17, N-[5-(6-aminohexanamido)-2-chlorobenzoyl]-β-alanine]: 0.38 µM; for `NCCCCCCC(=O)Nc1cccc(C(=O)NCCC(=O)O)c1` [Example 21, N-[m-(7-aminoheptanamido)benzoyl]-β-alanine]: 0.46 µM. The same measure, in the same setting: the same measure for `N=C(N)NCCCCC(=O)Nc1cccc(C(=O)NCCC(=O)O)c1` [Example 22, N-[m-(5-guanidinovaleramido)benzoyl]-β-alanine]: 0.25 µM; for `N=C(N)NCCCC(=O)Nc1cccc(C(=O)NCCC(=O)O)c1` [Example 24, N-[m-(4-guanidinobutyramido)benzoyl]-β-alanine]: 0.38 µM. For the molecule `CC(C)(C)OC(=O)N[C@@H](CCCN)C(=O)Nc1cccc(C(=O)NCCC(=O)O)c1` [Example 28, N-[m-[[(S)-N2-(t-butoxycarbonyl)-L-ornithyl]amino]benzoyl]-β-alanine], the 50% inhibitory concentration (IC50) was determined as 0.14 µM. Consider `NCc1ccc(CC(=O)Nc2cccc(C(=O)NCCC(=O)O)c2)cc1` [Example 32, N-[m-[2-(α-amino-p-tolyl)acetamido]benzoyl]-β-alanine], for which the IC50 came out at 0.12 µM.

Take `N=C(N)c1ccc(C(=O)Nc2cccc(C(=O)N[C@@H](CC(=O)O)C(=O)N[C@@H](Cc3cccc4ccccc34)C(=O)O)c2)cc1` [Example 34, N-[N-[m-(p-amidinobenzamido)benzoyl]-L-α-aspartyl]-3-(1-naphthyl)-L-alanine]: the concentration for half-maximal inhibition (IC50) stood at 0.046 µM. On the same count and under the same terms, the same measure for `N=C(N)c1ccc(C(=O)Nc2cccc(C(=O)NCCC(=O)O)c2)cc1` [Example 35, N-[m-(p-amidinobenzamido)-benzoyl]-β-alanine]: 0.0001 µM; for `N=C(N)NCC(=O)Nc1cccc(C(=O)NCCC(=O)O)c1` [Example 36, N-[m-[(N-amidinoglycyl)amino]benzoyl]-β-alanine]: 0.27 µM; for `NCCCCC(=O)Nc1ccc(OCc2ccccc2)c(C(=O)NCCC(=O)O)c1` [Example 46, N-[5-(5-aminovaleramido)-2-(benzyloxy)benzoyl]-β-alanine]: 0.15 µM. Still for that read-out and setting: the figure for `N=C(N)NCCCCC(=O)Nc1ccc(OCc2ccccc2)c(C(=O)NCCC(=O)O)c1` [Example 47, N-[2-(benzyloxy)-5-(5-guanidinovaleramido)benzoyl]-β-alanine] is 0.18 µM; for `N=C(N)c1ccc(C(=O)Nc2ccc(C(=O)NCCC(=O)O)cc2)cc1` [Example 51, N-[p-(p-amidinobenzamido)benzoyl]-β-alanine] it is 0.017 µM; for `N=C(N)c1ccc(CC(=O)Nc2cccc(C(=O)NCCC(=O)O)c2)cc1` [Example 52, N-[m-[2-(p-amidinophenyl)acetamido]benzoyl]-β-alanine] it is 0.14 µM. For `O=C(O)CCNC(=O)c1cccc(NC(=O)CCC2CCNCC2)c1` [Example 53, N-[m-[3-(4-piperidinyl)propionamido]benzoyl]-β-alanine], the IC50 was found to be 0.07 µM.

As to `N=C(N)c1ccc(C(=O)Nc2ccc(OCc3ccccc3)c(C(=O)NCCC(=O)O)c2)cc1` [Example 54, N-[5-(p-amidinobenzamido)-2-(benzyloxy)benzoyl]-β-alanine], the IC50 is 0.01 µM. Turning to `N=C(N)c1ccc(C(=O)Nc2cc(C(=O)NCCC(=O)O)ccc2OCc2ccccc2)cc1` [Example 55, N-[3-(p-amidinobenzamido)-4-(benzyloxy)benzoyl]-β-alanine], the half-inhibitory concentration (IC50) is 0.025 µM.

Consider `N=C(N)c1ccc(C(=O)Nc2cc(C(=O)NCCC(=O)O)ccc2O)cc1` [Example 56, N-[3-(p-amidinobenzamido)-4-hydroxybenzoyl]-β-alanine], for which the IC50 turned out to be 0.005 µM. Regarding `COC(=O)[C@H](CC(=O)O)NC(=O)c1cccc(NC(=O)c2ccc(C(=N)N)cc2)c1` [Example 60, (S)-3-[m-(p-amidinobenzamido)benzamido]-3-(methoxycarbonyl)propionic acid], the IC50 stood at 0.05 µM.

As to `N=C(N)N1CCC(C(=O)Nc2cccc(C(=O)N[C@@H](CC(=O)O)C(=O)N[C@@H](Cc3ccccc3)C(=O)O)c2)CC1` [Example 64, N-[N-[m-(1-amidino-4-piperidinecarboxamido)benzoyl]-L-α-aspartyl]-3-phenyl-L-alanine], the concentration for half-maximal inhibition (IC50) worked out at 0.22 µM. Still for that read-out and setting: the same measure for `N=C(N)c1ccc(CC(=O)Nc2cccc(C(=O)N[C@@H](CC(=O)O)C(=O)N[C@@H](Cc3ccccc3)C(=O)O)c2)cc1` [Example 65, N-[N-[m-[2-(p-amidinophenyl)acetamido]benzoyl]-L-α-aspartyl]-3-phenyl-L-alanine]: 0.084 µM.

Test system in the next series: not listed separately
Briefly: LD50 in the mouse (acute toxicity). As to conditions: in vivo, ip, intraperitoneally. Here is the method: The compounds of formula I are non-toxic. Thus, the product of Example 10 has a LD50 of more than 1000 mg/kg intraperitoneally and more than 2000 mg/kg perorally in the mouse.
As to `N=C(N)NCCCCCC(=O)Nc1cccc(C(=O)NCCC(=O)O)c1` [Example 10, N-[m-(6-guanidinohexanamido)benzoyl]-β-alanine], the LD50 is above 1000 mg/kg.

Still in this series, the particulars now being: in vivo, po, perorally.
In the case of `N=C(N)NCCCCCC(=O)Nc1cccc(C(=O)NCCC(=O)O)c1` [Example 10, N-[m-(6-guanidinohexanamido)benzoyl]-β-alanine], the median lethal dose (LD50) is above 2000 mg/kg.

By IC50 is commonly meant the concentration needed to halve the response being measured. A word on the LD50: it is the dose expected to kill half of the subjects tested. A higher LD50 goes with a less toxic substance.
